Measurements from ChEMBL document CHEMBL3046784, “Exploring QSAR of antiamoebic agents of isolated natural products by MLR, ANN, and RTO” (Med Chem Res, 2012).
Values after ≈ are worked out from the molar mass of the structure shown.

system: Entamoeba histolytica; assay: Antiamoebic activity against Entamoeba histolytica; assay type: functional, organism-based; details: not given

SMILES	IC50 [µg/mL]
COc1ccc2cc1Oc1ccc(cc1)C[C@H]1c3cc(c(OC)cc3CCN1C)Oc1c(OC)c(OC)cc3c1[C@H](C2)N(C)CC3 (stereo in doubt; 145) [FANCHININ]	25.16 (≈ 40.4 µM)
COc1cc2c3cc1Oc1c(OC)c(OC)cc4c1[C@H](Cc1ccc(cc1)Oc1cc(ccc1O)C[C@H]3N(C)CC2)N(C)CC4 (stereo in doubt; 117) [AROMOLINE]	19.64 (≈ 32.3 µM)

same assay, conditions: Entamoeba histolytica; read-out: IC50

IC50 [µg/mL]	SMILES
23.3 (≈ 41.5 µM)	COc1ccc2cc1Oc1ccc(cc1)CC1=NCCc3cc(OC)c4c(c31)Oc1cc3c(cc1O4)CCN(C)[C@H]3C2 [TRIGILLETIMINE]
21.9 (≈ 64.7 µM)	C/C=C1\CN2CC[C@]34c5ccccc5N(C(C)=O)[C@H]3[C@@H](CO)[C@H]1C[C@H]24 [RETULINE]
7.93 (≈ 27.7 µM)	O=c1c(O)c(-c2ccc(O)cc2)oc2cc(O)cc(O)c12 [KAEMPFEROL]
17.4 (≈ 29.4 µM)	O=C(/C=C/c1ccc(O)cc1)OC[C@H]1O[C@@H](Oc2c(-c3ccc(O)cc3)oc3cc(O)cc(O)c3c2=O)[C@H](O)[C@@H](O)[C@@H]1O [TILIROSIDE]
6.88 (≈ 11.3 µM)	COc1cc2c3c(c1OC)Oc1ccc(cc1)C[C@H]1c4c(cc(OC)c5c4Oc4ccc(cc4O5)C[C@H]3N(C)CC2)CCN1C [INSULARINE]
80.8 (≈ 315 µM)	O=C1C[C@@H](c2ccccc2)Oc2cc(O)cc(O)c21 [PINOCEMBRIN]
70.3 (≈ 213 µM)	COc1cc(O)c2c(=O)c(O)c(-c3ccc(OC)c(O)c3)oc2c1 [OMBUINE]
1.3 (≈ 2.95 µM)	CC[C@H]1CN2CCC3c4ccccc4NC3[C@@H]2C[C@@H]1C[C@H]1NCCc2c1[nH]c1ccccc21 (some centres undefined) [OCHROLIFUANINE A]
0.398 (≈ 0.739 µM)	COc1ccc(/C=C/C(=O)O[C@H]2[C@@H]3C=CO[C@@H](O[C@@H]4O[C@H](CO)[C@@H](O)[C@H](O)[C@H]4O)[C@@H]3[C@@]3(CO)O[C@@H]23)cc1O [MINECOSIDE]
12.5 (≈ 38.3 µM)	O=C(O)/C=C/c1ccccc1O[C@@H]1O[C@H](CO)[C@@H](O)[C@H](O)[C@H]1O [MELILOTOSIDE]

Continued, molecule first:

SMILES	IC50 [µg/mL]
CC[C@H]1[C@@H]2C[C@H]3[C@@H]4N(C)c5ccccc5[C@]45C[C@@H]([C@@H]2[C@H]5O)N3[C@@H]1O [AJMALINE]	> 100
CN[C@H]1CC[C@@]2(C)C(=CC[C@H]3[C@@H]4CC[C@@H]5[C@H](C)N(C)C[C@@]54CC[C@@H]32)C1 [ISOCONESSIMINE]	20.9 (≈ 61 µM)
Oc1ccc([C@H]2Oc3c(c(O)cc4c3[C@H]3c5c(O)cc6c(c5O[C@@](c5ccc(O)cc5)(O4)[C@@H]3O)[C@H]3c4c(O)cc(O)cc4O[C@@](c4ccc(O)cc4)(O6)[C@H]3O)C[C@@H]2O)cc1 [GERANIN D]	28.6 (≈ 35.1 µM)
COC(=O)C1=CO[C@H](O[C@@H]2O[C@H](CO)[C@@H](O)[C@H](O)[C@H]2O)[C@H]2[C@@H]1C=C[C@@]21C=C(C(O)c2ccc(O)cc2)C(=O)O1 (some centres undefined) [GAERTNEROSIDE]	4.3 (≈ 7.84 µM)
O=c1c(O)c(-c2ccc(O)c(O)c2)oc2cc(O)cc(O)c12 [QUERCETIN]	114 (≈ 378 µM)
C=C[C@H]1CN2CCc3c([nH]c4ccccc34)[C@@H]2C[C@@H]1C[C@H]1NCCc2c1[nH]c1cccc(OC)c21 [3ALPHA-17ALPHA-CINCHOPHYLLINE]	2.2 (≈ 4.71 µM)
COc1ccc2cc3[n+](cc2c1OC)CCc1cc2c(cc1-3)OCO2 [BERBERINE]	1
COc1ccc2cc1-c1cc(ccc1O)C[C@@H]1c3c(cc(OC)c4c3Oc3cc5c(cc3O4)CCN(C)[C@H]5C2)CCN1C [DINKLACORINE]	19.8 (≈ 34.4 µM)
COC(=O)C1=CO[C@H](O[C@@H]2O[C@H](CO)[C@@H](O)[C@H](O)[C@H]2O)[C@H]2[C@@H]1[C@@H]1O[C@@H]1[C@@]21C=C(C(O)c2ccc(O)cc2)C(=O)O1 (some centres undefined) [EPOXYGAERTNEROSIDE]	1.3 (≈ 2.3 µM)
COc1ccc2c(c1O)-c1c(OC)c(OC)cc3c1[C@H](C2)N(C)CC3 [ISOCORYDINE]	50.1 (≈ 147 µM)
C/C=C1/CN(C)CC[C@]23C(=O)C[C@@H]1[C@H]1CO[C@H](O)C(=O)N(c4ccccc42)[C@@H]13 [HOLSTIINE]	24.8 (≈ 64.9 µM)
CN[C@H]1CC[C@@]2(C)C(=CC[C@H]3[C@@H]4CC[C@@H]5[C@H](C)N=C[C@@]54CC[C@@H]32)C1 [CONESSIDINE]	2.29 (≈ 7.01 µM)
